According to patent US8802826B2, “Anti-clusterin antibodies and antigen binding fragments and their use to reduce tumor volume” (Alethia Biotherapeutics Inc., priority 2009, dated 2014):

Legend:
[1] = biological target: T1, human clusterin (recombinant monomeric clusterin) (Homo sapiens, UniProt P10909); assay: BIAcore kinetic analysis of antibody binding to immobilized clusterin
T1 construct: Recombinant monomeric clusterin was immobilized on a CM3 chip with normal amine coupling method
Description: The purpose of these investigations is to determine the kinetics parameters of anti-clusterin antibodies. In particular, to determine whether the humanization of the 16B5 and 21B12 anti-clusterin monoclonal antibody affects the kinetics parameters of its binding to human clusterin. To this end, a kinetic analysis method was developed using the BIAcore 3000. Human clusterin was immobilized on a sensor chip. Full length antibodies or Fab fragments were injected and allowed to interact with the immobilized clusterin. This example described the exemplary antibody 16B5 but the 21B12 exemplary antibody was prepared and tested in a similar manner.
HBST (10 mM Hepes pH 7.4, 135 mM NaCl, 3.4 mM EDTA, 0.005% Tween 20) was used as running buffer for all BIAcore experiments. Recombinant monomeric clusterin was immobilized on a CM3 chip with normal amine coupling method at a flow of 5 μl/min. Surface was activated with 35 μl of a mixture of 50 mM NHS/0.2M EDC. Clusterin in 10 mM Na-acetate pH 4.5 was injected until a desired amount was captured (below 60RU). Unreacted esters were deactivated with 35 μL1 of 1M ethanolamine hydrochloride-NaOH pH8.5. A control surface was prepared by injecting NHS/EDC and ethanolamine in the same manner.
Kinetics analysis was conducted at a flow of 50 μl/min. Full length antibodies (mouse or humanized) or Fab were diluted in HBST. Concentration range was from 1.953-31.25 nM for the full length antibodies and 15.625-250 nM for the Fab. Each concentration was injected over the clusterin and a control surface for 5 min followed with a 5 min dissociation wash. The clusterin surface was regenerated between each antibody injection with 50 μl of 20 mM HCl.

[2] = tested on: PC3 tumor cell line; assay: invasive growth in Matrigel, PC3; assay type: cell-based, human; settings: 8 μg/mL, up to 3 weeks
Description: FIG. 5. Inhibition of h16B5 reduces the invasiveness of human prostate cancer cells. The bottom of 12-well plates was covered with 200 μL Growth factor reduced matrigel (Becton Dickinson). Cells (2.5×10^4) were resuspended in 200 μL matrigel, which was layered on top of this, and finally 500 μL of cell specific growth medium was added on top of the matrigel. h16B5 was added to every layer of matrigel as well as the medium in a concentration of 8 μg/mL. Plates were incubated at 37° C. for up to 3 weeks during which the growth medium (+/−h16B5) was replenished weekly. The arrows indicate the areas of epithelial-like cells.
We then determined whether other cell lines such as the human prostate PC3 and DU145 cell lines, which secrete various levels of endogenous clusterin, could be affected in their invasive behavior and growth by the h16B5.

[3] = tested on: DU145 human prostate cancer cell line; assay: DU145 prostate tumor xenograft; assay type: in vivo, SCID mice; settings: 5 mg/kg i.p. twice per week
Description: FIG. 6. Treatment of prostate cancer tumors with h16B5 reduces the growth of the tumors and increases their response to chemotherapy. DU145 prostate cancer cells (2×10^6) were implanted s.c. into SCID mice and allowed to grow until the tumor sizes were approximately 100 mm3. Tumors were measured bi-weekly with a digital caliper and tumor volumes were calculated as L×W×H. Each group contained 8 animals that were randomized prior to the beginning off the treatments. The results were expressed as mm^3±SEM. The P values were calculated using the Student's T test.
These studies were performed to measure the in vivo efficacy of h16B5 in models of human cancer. Antisense oligonucleotides and small interfering RNAs targeting clusterin have been reported to induce apoptosis and chemosensitivity in vitro in prostate cancer xenografts. The model system that was used comprised the DU145 human prostate cancer cell line that is androgen-insensitive and represents one of the most well characterized models for this disease. Thus, 2 million cells were implanted sub-cutaneously into the flanks of SCID mice and the tumors were allowed to grow to approximately 100 mm^3. Starting on day 1, h16B5 was injected intra-peritoneally (i.p.) at a dosage of 5 mg/kg and from day 4, taxotere (TxT) was injected i.p. at a dosage of 10 mg/kg. […]

[4] = tested on: BRI-JM01 mouse mammary carcinoma cells; assay: internalization of fluorescently labelled secreted clusterin; assay type: cell-based; settings: h16B5 10 μg/ml, labelled clusterin 250 ng/ml
Description: FIG. 13. Secreted clusterin is internalized in cancer cells. Recombinant human clusteirn was expressed in 293-6E cells, purified, and labelled with Alexa Fluor 488 using a commercial labelling kit (Invitrogen). BRI-JM01 mouse mammary carcinoma cells were seeded on coverslips and treated with 250 ng/ml of labelled secreted clusterin. At the indicated times, the cells were washed with ice-cold PBS and fixed in 2% paraformaledyhyde. The slides were mounted with Antifade Gold and images were generated with a fluorescence microscope.
FIG. 14. H16B5 inhibits the internalization of secreted clusterin in cancer cells. The experiment was performed as described for FIG. 13. H16B5 was added at 10 μg/ml.
In order to begin to address this question, cell-based experiments were undertaken to determine if secreted clusterin interacted with cancer cells directly or via other secreted factors in the cell medium. In order to measure this, secreted clusterin was fluorescently labelled and incubated with BRI-JM01 mouse mammary carcinoma cells. […] As shown, the internalization increases over time in manner that is consistent with a receptor-mediated endocytic pathway. Furthermore, the punctate and perinuclear pattern of staining that results after 24 hours (see white arrows in FIG. 13) that is often observed in proteins that are internalized along the endosomal pathway. […]

T1 sequence (P10909 23-449): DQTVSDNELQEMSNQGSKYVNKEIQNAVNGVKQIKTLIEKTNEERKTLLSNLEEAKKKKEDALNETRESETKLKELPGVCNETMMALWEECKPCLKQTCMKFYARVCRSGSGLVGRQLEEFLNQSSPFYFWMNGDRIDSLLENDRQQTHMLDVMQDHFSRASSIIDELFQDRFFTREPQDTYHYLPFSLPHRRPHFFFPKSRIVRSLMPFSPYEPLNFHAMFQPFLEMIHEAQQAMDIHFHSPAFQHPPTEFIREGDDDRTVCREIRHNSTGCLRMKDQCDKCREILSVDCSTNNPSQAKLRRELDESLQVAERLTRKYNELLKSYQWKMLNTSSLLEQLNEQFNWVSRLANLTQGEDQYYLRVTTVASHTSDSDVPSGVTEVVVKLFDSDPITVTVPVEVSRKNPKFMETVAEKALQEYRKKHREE

h16B5: humanized anti-clusterin IgG2 antibody, heavy chain SEQ ID NO.:9 and light chain SEQ ID NO.:10
kinetics parameters compared with the parent mouse antibody ([1]; full length vs full length, Fab vs Fab): very similar
KD of the interaction with immobilized human clusterin ([1]; stated in words): low nM range
stellate morphology in Matrigel (invasive phenotype) [2]: significantly reduced
growth of the (primary) tumors compared to the control [3]: significantly reduced
internalization of secreted clusterin into JM01 cells [4]: blocked
